In article PMC8745486, “Removal of Persistent Sulfamethoxazole and Carbamazepine from Water by Horseradish Peroxidase Encapsulated into Poly(Vinyl Chloride) Electrospun Fibers” (International Journal of Molecular Sciences, 2021):
Counter-ions that a name gives are not always drawn.

System: T1, horseradish peroxidase (HRP)
T1 construct: gene PRXC1A
Conditions: read-out: Free HRP; free enzyme; pH 7, 25 °C; 0.1 to 5 mM ABTS; H2O2 not stated for the kinetic assay

## CCn1c(=NN=c2sc3cc(S(=O)(=O)O)ccc3n2CC)sc2cc(S(=O)(=O)O)ccc21 [ABTS, 2,2′-azino-bis(3-ehylbenzothiazoline-6-sulfonic acid) diammonium salt]
  Km: 1540 ± 130 µM
